Test results reported in ChEMBL document CHEMBL1201862, “PubChem BioAssay data set” (2004).
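Following 48 hours of exposure in 96-well plates, responses at five concentrations were used to interpolate endpoints linearly. At the GI50, growth is halved.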 Activity calls are given as the source filed them. No stated cut-off is given here; in the data, active = GI50 up to about 1.1 µM and inactive = higher.

Assays:
Test in all cases: inhibition of tumour cell growth, NCI panel, 48 h
DMS-273 = test system: DMS-273
DMS-114 = test system: DMS-114
DLD-1 = test system: DLD-1
M19-MEL = test system: M19-MEL
LXFL 529 = test system: LXFL 529
SNB-78 = test system: SNB-78
BT-549 = test system: BT-549
HOP-18 = test system: HOP-18

COC(=O)c1ccc(/N=N/N(C)CO)cc1
GI50 (DMS-273): 63.1 µM (inactive) | GI50 (DMS-114): > 100 µM (inactive) | GI50 (DLD-1): 98.6 µM (inactive) | GI50 (M19-MEL): > 100 µM (inactive) | GI50 (LXFL 529): 43.6 µM (inactive) | GI50 (SNB-78): 32.5 µM (inactive)

Cc1cc(S(=O)(=O)Nc2nc3ccccc3nc2-c2cccc([N+](=O)[O-])c2)c(S)cc1Cl
GI50 (BT-549): 38.7 µM (inactive)

COc1c2occc2c(N)c2ccc(=O)oc12
GI50 (BT-549): > 100 µM (inactive)

CCOC(=O)COc1cc(-c2ccccc2F)nc2cc3c(cc12)OCO3
GI50 (BT-549): > 100 µM (inactive)

CC(=O)OC(C)c1cc2c(s1)C(=O)c1sccc1C2=O (stereo not given)
GI50 (BT-549): 0.7 µM (active)

CC1=C(O)C(=O)[C@@H]2O[C@@H]2C1=O
GI50 (DMS-273): 22.8 µM (inactive) | GI50 (DMS-114): 10.3 µM (inactive) | GI50 (HOP-18): 12.5 µM (inactive) | GI50 (DLD-1): 7.28 µM (inactive) | GI50 (M19-MEL): 11.2 µM (inactive) | GI50 (SNB-78): 15.6 µM (inactive)

Cc1ccc(C)c(C2NC(=O)c3ccccc3N2)c1 (stereo not given)
GI50 (BT-549): 5.25 µM (inactive)

N#CC(OC1OC(COC2OC(CO)C(O)C(O)C2O)C(O)C(O)C1O)c1ccccc1 (stereo not given)
GI50 (DMS-273): > 225 µM (inactive) | GI50 (DMS-114): > 225 µM (inactive) | GI50 (HOP-18): > 225 µM (inactive) | GI50 (DLD-1): > 225 µM (inactive) | GI50 (M19-MEL): > 225 µM (inactive) | GI50 (SNB-78): > 225 µM (inactive)

COC(=O)[C@H]1C=NN[C@@H]1C(=O)N1[C@H]2CC3CC[C@@]2(CS1(=O)=O)C3(C)C
GI50 (BT-549): > 100 µM (inactive)

O=C(CNc1cccc(Cl)c1)Nn1c(-c2ccccc2)nc2ccccc2c1=O
GI50 (BT-549): 2.16 µM (inactive)

Oc1ccc(/C=N/N=c2\[nH][nH]/c(=N\N=C\c3ccc(O)cc3O)c3ccccc23)c(O)c1
GI50 (BT-549): 0.21 µM (active)

C=CCOC(=O)C1=C(CCC[C@@H](C)O[Si](C)(C)C(C)(C)C)N=C(N)N2[C@H](CCO)CC[C@@H]12
GI50 (BT-549): 21.8 µM (inactive)

O=c1oc2ccc(Cl)cc2cc1-c1cn2cc(Cl)ccc2n1
GI50 (BT-549): 15.1 µM (inactive)

CC1(C)CC(=O)c2c(nc3ccc4ccccc4c3c2-c2ccc(NC(=O)CCCC(=O)Nc3ccc(-c4c5c(nc6ccc7ccccc7c46)CC(C)(C)CC5=O)cc3)cc2)C1
GI50 (BT-549): > 100 µM (inactive)

COc1ccc2nc3cccc([N+](=O)[O-])c3c(NCCO)c2c1
GI50 (BT-549): 0.00565 µM (active)

O=C1NC2(CCNCC2)Oc2ccccc21
GI50 (BT-549): > 100 µM (inactive)

Cc1nc(=O)n2c(c1C(=O)Nc1ccc(Cl)cc1)NCCC2
GI50 (DMS-114): > 100 µM (inactive) | GI50 (M19-MEL): > 100 µM (inactive) | GI50 (LXFL 529): > 100 µM (inactive) | GI50 (SNB-78): > 100 µM (inactive)

CCCCc1c2c(nc3c1CCCC3=O)CCCC2
GI50 (DMS-273): > 100 µM (inactive) | GI50 (DMS-114): > 100 µM (inactive) | GI50 (M19-MEL): > 100 µM (inactive) | GI50 (LXFL 529): > 100 µM (inactive)

CCN(CC)CCCNc1n[n+]([O-])c2ccccc2[n+]1[O-]
GI50 (BT-549): 17.3 µM (inactive)

Nc1nc(N)c2ncn(Cc3ccccc3CO)c2n1
GI50 (BT-549): > 100 µM (inactive)

COc1cc(Nc2cnc3cc(F)c(F)cc3n2)cc(OC)c1OC
GI50 (BT-549): > 100 µM (inactive)

CC(=O)OC(OC(C)=O)c1c2ccccc2cc2ccccc12
GI50 (BT-549): 14.9 µM (inactive)

Cn1c(=O)n2c(-c3ccccc3)c(-c3ccccc3)n2c1=O
GI50 (BT-549): > 100 µM (inactive)

O=C(OC1C#CCSCC#C/C=C\1)c1ccc2c(c1)C(=O)c1ccccc1C2=O (stereo not given)
GI50 (BT-549): 22.6 µM (inactive)

O=C1C(Cl)N(c2cccc([N+](=O)[O-])c2)C1c1c[nH]c2ccccc12 (stereo not given)
GI50 (DMS-114): 15.1 µM (inactive) | GI50 (M19-MEL): 18.1 µM (inactive) | GI50 (LXFL 529): 6.25 µM (inactive)

O=C1CC2(CCNCC2)C(=O)N1N1CCCCC1
GI50 (BT-549): > 100 µM (inactive)

CC(=O)Nc1ccccc1S(=O)(=O)c1c(-c2c(C)c(Cl)c(C)c(Cl)c2C)noc1C
GI50 (BT-549): 33.9 µM (inactive)

CC(Cc1ccc(Cl)cc1Cl)NO (stereo not given)
GI50 (BT-549): > 100 µM (inactive)

CC1OC(O)CC(N(C)C)C1O.CC1OC(O)CCC1O.CCC1CC(O)c2c(O)c3c(c(O)c2C1O)C(=O)c1cccc(O)c1C3=O (stereo not given)
GI50 (BT-549): 0.0448 µM (active)

O=C1CCCCc2cccc(O)c21
GI50 (BT-549): > 100 µM (inactive)

CC(=O)OCC1(CNc2nc(N)ncc2C#N)CC(CCc2ccccc2)C1 (stereo not given)
GI50 (BT-549): 87.1 µM (inactive)

CC(=O)N(C(C)=O)n1c(Cc2ccc(C)cc2)nn(C(C)=O)c1=O
GI50 (BT-549): > 100 µM (inactive)

CC1CC2=C(C1)C(C1(C)C(=O)CC3C(C1=O)C3(C)C)C(C)C2=O (stereo not given)
GI50 (BT-549): > 100 µM (inactive)

COc1cc(Nc2cc(Cl)cc(Cl)c2)nc(N)n1
GI50 (BT-549): 17.1 µM (inactive)

O=C(O)c1c(CC(Cc2ccc3c(c2)CCC3)C(=O)O)ccc2c1CCC2 (stereo not given)
GI50 (BT-549): > 100 µM (inactive)

CC1=C(Br)C(=O)c2c(O)ccc(O)c2C1=O
GI50 (BT-549): 0.71 µM (active)

COC(=O)Cn1c(=O)oc2nc(-c3ccccc3)cc(C(F)(F)F)c21
GI50 (BT-549): > 100 µM (inactive)

O=C(CSSCC(=O)Nc1ccc(Br)cc1)Nc1ccc(Br)cc1
GI50 (DMS-273): 16.5 µM (inactive) | GI50 (DMS-114): 14 µM (inactive) | GI50 (DLD-1): 18.1 µM (inactive) | GI50 (M19-MEL): 18.5 µM (inactive) | GI50 (LXFL 529): 16 µM (inactive) | GI50 (SNB-78): 15.1 µM (inactive)

Cc1cc(C)n(CCNCCn2nc(C)cc2C)n1
GI50 (DMS-273): > 100 µM (inactive) | GI50 (DMS-114): > 100 µM (inactive) | GI50 (DLD-1): > 100 µM (inactive) | GI50 (M19-MEL): > 100 µM (inactive) | GI50 (LXFL 529): > 100 µM (inactive) | GI50 (SNB-78): > 100 µM (inactive)

CC(=O)c1ccc(NC(=O)C(=O)C(C#N)CC(C)(C)C=O)cc1 (stereo not given)
GI50 (M19-MEL): > 100 µM (inactive) | GI50 (LXFL 529): > 100 µM (inactive) | GI50 (SNB-78): > 100 µM (inactive)

O=P1(Oc2ccc(Cl)cc2Cl)Oc2cc3ccccc3cc2O1
GI50 (DMS-273): 59.6 µM (inactive) | GI50 (DMS-114): 27.5 µM (inactive) | GI50 (HOP-18): 62.2 µM (inactive) | GI50 (DLD-1): 56.8 µM (inactive) | GI50 (SNB-78): > 100 µM (inactive)

COc1ccc(C(SCCO)(c2ccc(OC)cc2)c2ccc(OC)cc2)cc1
GI50 (BT-549): 16.1 µM (inactive)

CCOC(=O)NNC(=O)NCc1cccc(CNC(=O)NNC(=O)OCC)c1
GI50 (BT-549): > 100 µM (inactive)

CCOC(=O)C(N=C(c1ccccc1)c1ccccc1)N(C(=O)OC(C)(C)C)C(=O)OC(C)(C)C (stereo not given)
GI50 (DMS-114): > 100 µM (inactive) | GI50 (M19-MEL): > 100 µM (inactive) | GI50 (LXFL 529): 75.2 µM (inactive) | GI50 (SNB-78): > 100 µM (inactive)

CC1=C(C(=O)Nc2ccccc2)C2(CCCCC2)C(C#N)=C(SCC(=O)Nc2ccc(Br)cc2)N1
GI50 (BT-549): 8.15 µM (inactive)

COc1ccc(-c2c(C#N)c(N)n(C3OCC(O)C(O)C3O)c(=S)c2C#N)cc1 (stereo not given)
GI50 (BT-549): > 100 µM (inactive)

O=C1C(C(O)(C(F)(F)Cl)C(F)(F)Cl)CCCC1C(O)(C(F)(F)Cl)C(F)(F)Cl (stereo not given)
GI50 (BT-549): > 10 µM (inactive)

COP(=O)(Cc1ccccc1)Cc1ccccc1
GI50 (BT-549): > 100 µM (inactive)

CC(C)(C)OC(=O)NC(Cc1ccc([N+](=O)[O-])cc1)C(=O)NC(CCCCNC(=O)OCc1ccccc1)C(=O)ON1C(=O)CCC1=O (stereo not given)
GI50 (BT-549): > 100 µM (inactive)

CSCC[C@@H](NC(=O)[C@H](CC(C)C)NC(=O)C(Cc1cnc[nH]1)NC(=O)CNC(=O)[C@@H](NC(=O)[C@H](C)NC(=O)[C@H](Cc1c[nH]c2ccccc12)NC(=O)[C@H](CCC(N)=O)NC(=O)[C@@H](N)CC(N)=O)C(C)C)C(N)=O (stereo not given in full)
GI50 (DMS-273): > 100 µM (inactive) | GI50 (DMS-114): > 100 µM (inactive) | GI50 (HOP-18): > 100 µM (inactive) | GI50 (DLD-1): > 100 µM (inactive) | GI50 (M19-MEL): > 100 µM (inactive) | GI50 (SNB-78): > 100 µM (inactive)

COc1cc(CC(C)NC(C)=O)cc(OC)c1 (stereo not given)
GI50 (BT-549): > 100 µM (inactive)

Brc1ccc(/N=N/N2CCCCC2)cc1
GI50 (BT-549): 98.2 µM (inactive)

Cc1c(-c2ccc(-c3ccccc3F)cc2)nc2ccc(F)cc2c1C(=O)O [BREQUINAR SODIUM]
GI50 (DMS-273): 0.193 µM (active) | GI50 (HOP-18): 46.1 µM (inactive) | GI50 (DLD-1): 0.0875 µM (active) | GI50 (BT-549): 155 µM (inactive) | GI50 (M19-MEL): 1.2 µM (inactive)

CC1=CC(=O)c2ccc(C)cc2C1=O [CHIMAPHILIN]
GI50 (BT-549): 11.6 µM (inactive)
